Like-named read-outs stand apart in the source and are kept apart here.
Columns and labels:
Format in all cases: binding, sheep
Antibody to Immunogen I = details: Cross-reactants at 100 ng/ml, Antibody to Immunogen I
Procedure: (§1) An aqueous solution of each immunogen was formulated with Freund's Complete Adjuvant (FCA) to form an emulsion consisting of 2mg/ml* immunogen in 50% (v/v) FCA. Three sheep were immunised with this emulsion (1° immunisation), 0.25ml being intramuscularly injected at each of four sites in the flank of each animal. Subsequent immunizations (boosts) contained 1mg/ml* immunogen. All boosts were emulsified in 50% (v/v) Freund's Incomplete Adjuvant (FIA) and were administered in the same manner as the 1° immunisation, at monthly intervals. Blood sampling took place 7 to 14 days after each boost. *The general procedure for immunogen administration is outlined above, however, it was necessary to deviate from this protocol in some cases, due to reduced immunogen concentrations (Immunogens II, IV, VII and VIII) and/or amount available (Immunogen VIII). Any deviations from the protocol described are outlined in Table 1A below and highlighted in bold. Table 1A: Amount and volume of immunogens administered for primary and subsequent boosts
(§2) The wells of an enhanced binding 96 well polystyrene microtiter plate were coated with IgG fraction of antiserum raised to Immunogen I or II, diluted in 10mM Tris, pH8.5 (125µl/well). The appropriate antibody coating dilution was determined using standard ELISA checkerboard techniques. The plate was incubated overnight at 4°C, washed 4 times over 10 minutes with Tris buffered saline containing Tween 20 (TBST) and tapped dry. Standard solutions (JWH-018 for Immunogens I and II) were applied at 0, 0.625, 1.25, 2.5, 5, 10, 20 and 40ng/ml and 50µl of each was added to the appropriate wells. 75µl of conjugate (appropriate hapten-HRP) diluted in Tris buffer (pH 7.2) containing EDTA, D-mannitol, sucrose, thimerosal and BSA, was added to each of the wells. The appropriate dilution of conjugate was also determined using standard ELISA checkerboard techniques. The plate was incubated at 25°C for 1 hour. Excess unbound conjugate was removed by washing 6 times over a 10 minute period with TBST. 125µl of tetramethylbenzidine (TMB) substrate solution was added to each well of the plate that was then incubated for 20 minutes in the dark at room temperature. The reaction was terminated by addition of 125µl 0.2M H2SO4 to each well. The absorbance was then measured at 450nm using a microtiter plate reader. The data are inputted to a computer program called 'KC Junior'. It is a 4 parameter fit curve and allow the calculatation of concentrations between the standard runs. This program is used to calculate the IC50s by dividing the 0ng/ml OD value by 2 and obtaining the concentration value from the curve for this OD.
In a similar manner to that described above, the wells of a 96-well microtiter plate were coated with the IgG fraction of the antiserum raised to Immunogens I or II. Standard solutions (JWH-018 for Immunogen I and II) were applied at 0, 0.625, 1.25, 2.5, 5, 10, 20 and 40ng/ml and conjugate was employed as detection reagent.
(§3) The data set our in Tables 3 and 4 are generated using antibodies raised against the indicated Immunogens in a competitive binding assay with the indicated tracers, using the indicated standards: Table 2
(§4) A450 = absorbance at 450nm B = absorbance at 450nm at xng/ml standard concentration B0 = absorbance at 450nm at 0ng/ml standard concentration IC50 = standard concentration which produces 50% B/B0
(§5) In order to determine the specificity of the competitive ELISAs, standard solutions of a range of structurally similar synthetic cannabinoids and their metabolites were prepared in TBST. Using the calibration curves generated and employing a single level of cross reactants, these were used to determine the cross-reactivity of each immunoassay with these substances. […]

Antibody to Immunogen IV = details: Cross-reactants at 100 ng/ml, Antibody to Immunogen IV
Procedure: as §1, §2
(§6) In a similar manner to that described above, the wells of a 96-well microtiter plate were coated with the IgG fraction of the antiserum raised to Immunogens IV, VII or VIII. Standard solutions (JWH-018 for Immunogens IV and VIII, JWH-015 for Immunogen VII) were prepared in TBST at 0, 1.25, 2.5, 5, 10, 20, 40 and 80ng/ml and conjugate was employed as detection reagent.
as §3, §4, §5

[1] = test system: Antibody to Immunogen VIII; details: Cross-reactants at 100 ng/ml, Antibody to Immunogen VIII
Procedure: as §1, §2, §6, §3, §4, §5

[2] = test system: Antibody to Immunogen VII; details: Cross-reactants at 100 ng/ml, Antibody to Immunogen VII
Procedure: as §1, §2, §6, §3, §4, §5

[3] = listed as YWH-081 7-methoxynaphthyl isomer (JWH-164)

| SMILES | %B/B0 (Antibody to Immunogen I) | %B/B0 (Antibody to Immunogen I; [3]) | %B/B0 (Antibody to Immunogen IV) | %B/B0 (Antibody to Immunogen IV; [3]) | %B/B0 [1] | %B/B0 [1, 3] | %B/B0 [2] | %B/B0 [2, 3] |
| --- | --- | --- | --- | --- | --- | --- | --- | --- |
| CCCCCn1cc(C(=O)c2cccc3ccc(OC)cc23)c2ccccc21 [JWH-164 (JWH-081 7-methoxynaphthyl isomer), JWH-081 7-methoxynaphthyl isomer] | 91.86% | 88.26% | 36.14% | 39.20% | 57.93% | 59.51% | 96.13% | 97.60% |
| CCCCCn1cc(C(=O)c2ccc(CCC)c3ccccc23)c2ccccc21 [JWH-182] | 107.08% |  | 12.83% |  | 30.65% |  | 98.40% |  |
| O=C(c1ccc2ccccc2c1)c1cn(CCN2CCOCC2)c2ccccc12 [JWH-200 2'-naphthyl isomer] | 28.57% |  | 92.29% |  | 96.12% |  | 94.65% |  |
| CCCCCn1cc(C(=O)Cc2ccc(OC)cc2)c2ccccc21 [JWH-201] | 77.14% |  | 59.03% |  | 8.26% |  | 100.25% |  |
| CCCCCn1cc(C(=O)Cc2ccccc2Cl)c2ccccc21 [JWH-203] | 72.55% |  | 52.15% |  | 9.19% |  | 99.08% |  |
| CCCCCn1cc(C(=O)Cc2ccc(Cl)cc2)c2ccccc21 [JWH-206 (JWH-203 4-chloro isomer), JWH-203 4-chloro isomer] | 75.96% |  | 65.63% |  | 10.55% |  | 97.17% |  |
| CCCCCn1cc(C(=O)c2c(CC)ccc3ccccc23)c2ccccc21 [JWH-210 2-ethylnaphthyl isomer] | 81.37% |  | 53.97% |  | 73.51% |  | 96.13% |  |
| CCCCCn1cc(C(=O)c2ccc(CC)c3ccccc23)c2cc(O)ccc21 [JWH-210 5-hydroxyindole metabolite] | 83.29% |  | 48.91% |  | 87.72% |  | 100.43% |  |
| CCCCCn1cc(C(=O)c2cccc3ccc(CC)cc23)c2ccccc21 [JWH-210 7-ethylnaphthyl isomer or JWH-234, JWH-210 7-ethylnaphthyl isomer] | 73.11% |  | 27.07% |  | 50.90% |  | 100.55% |  |
| CCc1ccc(C(=O)c2cn(CCCCCC(=O)O)c3ccccc23)c2ccccc12 [JWH-210 N-(5-carboxypentyl) metabolite] | 76.77% |  | 85.29% |  | 96.27% |  | 96.07% |  |
| CCCCCn1cc(C(=O)c2ccc(CC)c3ccccc23)c2ccccc21 [JWH-210] | 91.18% |  | 5.53% |  | 16.87% |  | 96.62% |  |
| CCCCCn1cc(C(=O)Cc2ccccc2OC)c2ccccc21 [JWH-250] | 78.94% |  | 41.08% |  | 9.40% |  | 97.23% |  |
| CCCCCn1cc(C(=O)Cc2ccccc2C)c2ccccc21 [JWH-251] | 68.01% |  | 42.02% |  | 9.12% |  | 96.74% |  |
| CCCCCn1cc(C(=O)Cc2cccc(OC)c2)c2ccccc21 [JWH-302] | 84.66% |  | 45.67% |  | 7.97% |  | 104.92% |  |
| CCCCCn1cc(C(=O)c2cccc(OC)c2)c2ccccc21 [RCS-4 3-methoxy isomer] | 31.19% |  | 25.65% |  | 10.95% |  | 94.72% |  |
| COc1ccc(C(=O)c2cn(CCCC(C)O)c3ccccc23)cc1 (stereo not shown) [RCS-4 N-(4-hydroxypentyl) metabolite] | 65.71% |  | 59.16% |  | 8.89% |  | 95.72% |  |
| COc1ccc(C(=O)c2cn(CCCCCC(=O)O)c3ccccc23)cc1 [RCS-4 N-(5-carboxypentyl) metabolite] | 77.12% |  | 91.44% |  | 91.97% |  | 94.00% |  |
| COc1ccc(C(=O)c2cn(CCCCCO)c3ccccc23)cc1 [RCS-4 N-(5-hydroxypentyl) metabolite] | 59.51% |  | 61.03% |  | 19.13% |  | 94.55% |  |
| CCCCn1cc(C(=O)c2ccc(OC)cc2)c2ccccc21 [RCS-4-C4 homologue] | 76.27% |  | 27.17% |  | 9.54% |  | 100.20% |  |
| CCCCCn1cc(C(=O)c2ccc(OC)cc2)c2ccccc21 [RCS-4] | 80.46% |  | 19.21% |  | 5.93% |  | 93.51% |  |
| COc1cccc(CC(=O)c2cn(CCC3CCCCC3)c3ccccc23)c1 [RCS-8 3-methoxy isomer] | 93.24% |  | 89.43% |  | 83.62% |  | 93.73% |  |
| COc1ccc(CC(=O)c2cn(CCC3CCCCC3)c3ccccc23)cc1 [RCS-8 4-methoxy isomer] | 94.94% |  | 90.78% |  | 100.72% |  | 98.21% |  |
| COc1ccccc1CC(=O)c1cn(CCC2CCCCC2)c2ccccc12 [RCS-8 (SR-18), RCS-8] | 82.65% |  | 85.50% |  | 88.79% |  | 94.57% |  |
| COc1ccc(C(=O)c2c(C)n(CCN3CCOCC3)c3ccccc23)cc1 [WIN-48,098 (other name Pravadoline), Pravadoline] | 90.05% |  | 91.64% |  | 97.90% |  | 92.41% |  |

From patent EP2698385A1, “Detection of synthetic cannabinoids” (priority 2012, dated 2014)
